# Reference: patent publication US20260355239A1, “COMBINATION OF A T CELL THERAPY AND CONTINUOUS OR INTERMITTENT DGK INHIBITOR DOSING” (Juno Therapeutics, Inc., priority 2022, published 2026)
# Experiments:
# [1] = tested on: anti-CD19 CAR-T cells with A549.CD19 and Granta-519 tumor spheroids; assay: Rescue treatment: cytokine production of chronically stimulated CAR-T cells, 3D spheroids; format: cell-based, human; conditions: 3D spheroid co-culture, five days
# Experimental: Anti-CD19 CAR-expressing T cells, produced as described in Example 2, were chronically stimulated with plate-bound CAR-specific anti-idiotypic antibody for seven days as described in Example 3, but in the absence of Compound 17 during chronic stimulation. Instead, chronically stimulated CAR T cells were treated with Compound 17 during re-challenge with CD19-expressing tumor cells, after which cytolytic activity and cytokine production were assessed.
# Cytolytic activity also was assessed in CD19-expressing tumor spheroid cultures incubated with chronically stimulated CAR-T cells in the presence of DGKi. A549 CD19+ tumor spheroids or Granta-519 tumor spheroids were incubated with the anti-CD19 CAR-expressing T cells at an effector to target ratio of 1:2 for up to 14 days in the presence of DGKi (0-1000 nM). The tumor spheroids were engineered to express a red fluorescent dye to permit monitoring of tumor cell lysis by microscopy during the assay. Cytolytic activity was assessed by monitoring fluorescence over time, and the tumor volume (normalized to time zero) was measured as the number of red calibrated units (RCU)×μm^2 area. […]
# Supernatant was collected at day 5 from the above tumor spheroid cultures with chronically stimulated CAR-expressing T cells. Cytokine production was measured from the supernatant by meso scale discovery (MSD) analysis of the collected cell supernatants. […]
# [2] = tested on: CAR-expressing T cells; assay: Chronic stimulation assay, concurrent treatment: tumor cell numbers, spheroid volume and cytokines during re-challenge of CAR-expressing T cells (FIGS. 5A-6B); format: cell-based, human
# Description: FIGS. 5A-5B and 6A-6B show cytolytic activity and cytokine production during re-challenge of CAR-expressing T cells chronically stimulated in the presence of Compound 17 (concurrent treatment).
# These observations were made using a chronic stimulation assay to render T cells (e.g. CAR T cells) hypofunctional (e.g. reduced cytolysis and IL-2 secretion). Using this model, engineered T cells (e.g. CAR T cells or eTCR T cells) were examined to assess impact of DGKi, such as Compound 17, on function of the engineered T cells when present during (concurrent) or following (rescue) exposure to conditions leading to a hypofunctional, exhaustive state.
# [3] = tested on: anti-CD19 CAR-T cells with K562.CD19, Granta-519 and Raji cells; assay: Rescue treatment: cytokine production of chronically stimulated CAR-T cells, 2D co-culture; format: cell-based, human; conditions: 48 h
# [4] = tested on: eTCR T cells; assay: Rescue treatment: proliferation of chronically stimulated eTCR T cells on re-stimulation; format: cell-based, human; conditions: 100 nM, 7 day re-stimulation with 20 μg/mL anti-Vbeta
# Description: Primary human CD4+ and CD8+ T cells were isolated from healthy donors by immunoaffinity-based methods. The isolated CD4+ and CD8+ T cells were combined and stimulated with an anti-CD3/anti-CD28 reagent, and then were transduced with a lentiviral vector encoding an anti-human papillomavirus 16 (anti-HPV16) eTCR. The nucleotide sequences encoding the beta chain and the alpha chain of the eTCR were separated by a sequence encoding a 2A ribosome skip element. Following transduction, the cells were cultured in media containing human serum and cytokines for 9-10 days prior to further assessment.
# In another experiment to assess activity of the DGKi to rescue or reverse exhaustion, eTCR T cells were chronically stimulated for 6 days as described above in the absence of Compound 17. Then, chronically stimulated eTCR T cells or freshly thawed eTCR T cells that had not been chronically stimulated were re-stimulated with 20 μg/mL plate-bound antibody against the Vbeta chain of the eTCR in the presence of 100 nM Compound 17 for 7 days. As a control, chronically stimulated eTCR T cells were re-stimulated in the absence of Compound 17 for 7 days. At the end of the 7 day re-stimulation, cell counts were determined.
# [5] = tested on: engineered T cells for the T cell therapy; assay: In vivo anti-tumor effects and CAR T cell expansion/persistence with continuous DGKi dosing (summary of observations)
# Description: Without wishing to be limited by a specific mechanism of action, the results shown herein are consistent with a finding that the continuous presence of the DGKi following T cell therapy administration may prevent or reduce exhaustion in T cells of the T cell therapy, thereby improving T cell anti-tumor activity and proliferative capacity following administration.
# [6] = tested on: anti-CD19 CAR-T cells; assay: CAR-T cell phenotype after acute stimulation (flow cytometry); format: cell-based, human
# Description: T cell compositions containing T cells expressing an exemplary anti-CD19 CAR were generated from leukapheresis samples from two healthy human adult donors by a process that included immunoaffinity-based selection of T cells by separately selecting CD4+ and CD8+ cells from the samples, resulting in two compositions enriched for CD4+ and CD8+ cells, respectively, per donor. Cells of the enriched CD4+ and CD8+ compositions were separately activated with anti-CD3/anti-CD28 beads and subjected to lentiviral transduction with a vector encoding an anti-CD19 CAR. The anti-CD19 CAR contained an anti-CD19 single-chain variable fragment (scFv) derived from a murine antibody (variable region derived from FMC63), an immunoglobulin-derived spacer, a transmembrane domain derived from CD28, a costimulatory region derived from 4-1BB, and a CD3-zeta intracellular signaling domain. […]
# (§1) Prior to use, the cryopreserved CD4+ and CD8+ CAR-engineered cell compositions were thawed and combined at approximately a 1:1 CD4:CD8 ratio for each donor to prepare a combined CD4+ CAR+ and CD8+ CAR+ T cell composition. The effects of treatment with Compound 17 at various concentrations (0.1 nM, 1 nM, 10 nM, 100 nM, or 1000 nM) added at day 0 during stimulation of the combined CAR-T cell composition with a plate-bound CAR-specific anti-idiotypic antibody (see, e.g., WO2018/023100) or during co-culture with CD19-expressing cells was then assessed.
# Approximately 20,000 cells of the combined CAR-T cell composition were stimulated with 3 μg/ml or 30 μg/ml plate-bound CAR-specific anti-idiotypic antibody in the presence of Compound 17. After a 48-hour stimulation, T cells were surface stained with antibodies for various activation and differentiation markers and analyzed by flow cytometry for the percent of cells positive for the assessed markers (% positive) and for mean fluorescence intensity (MFI) of expression for the assessed markers. […]
# [7] = tested on: anti-CD19 CAR-T cells; assay: CAR-T cell proliferation during stimulation (Incucyte); format: cell-based, human; conditions: 30 μg/mL plate-bound anti-idiotypic antibody, seven days
# Description: T cell compositions containing T cells expressing an exemplary anti-CD19 CAR were generated from leukapheresis samples from two healthy human adult donors by a process that included immunoaffinity-based selection of T cells by separately selecting CD4+ and CD8+ cells from the samples, resulting in two compositions enriched for CD4+ and CD8+ cells, respectively, per donor. Cells of the enriched CD4+ and CD8+ compositions were separately activated with anti-CD3/anti-CD28 beads and subjected to lentiviral transduction with a vector encoding an anti-CD19 CAR. […]
# as §1
# T cell proliferation during stimulation with 30 μg/mL of plate-bound anti-CAR anti-idiotypic antibody in the presence of Compound 17 was monitored for seven days using an Incucyte imaging system. […]
# [8] = 48-hour stimulation, 3 or 30 μg/mL CAR-specific anti-idiotypic antibody
smiles,measurement,setting,value
"CC[C@H]1CN([C@@H](CC)c2ccc(C(F)(F)F)cc2)[C@H](CC)CN1c1nc(=O)n(C)c2ccc(C#N)nc12 [Compound 17, 4-((2S,5R)-2,5-diethyl-4-((S)-1-(4-(trifluoromethyl)phenyl)propyl)piperazin-1-yl)-1-methyl-2-oxo-1,2-dihydropyrido[3,2-d]pyrimidine-6-carbonitrile]","production of IFNγ, IL-2 and TNFα",[1],dose-dependent increase in production of all three cytokines
same,effect of concurrent treatment on hypofunctionality upon rechallenge with antigen,[2],reversed activity and phenotypes associated with T cell hypofunctionality and preserved more effector function
same,"production of IFNγ, IL-2 and TNFα",[3],dose-dependent increase in production of all three cytokines
same,proliferation of chronically stimulated eTCR T cells (cell counts),[4],increased proliferation of the eTCR T cells
same,in vivo anti-tumor effects,"[5]; continuous dosing, at least once daily for a plurality of consecutive days, with engineered T cells",improves in vivo anti-tumor effects
same,CAR T cell expansion and/or persistence,[5]; continuous presence of DGKi beginning on same day as T cell therapy,"can improve CAR T cell expansion and/or persistence, in particular that of CD4+ CAR T cells"
same,expression of CD27 and CD62L,[6]; [8],decreased expression of CD27 and CD62L
same,expression of CD69 and PD-1,[6]; [8],increased expression of CD69 and PD-1
same,"effect on cell phenotype, dose dependence",[6]; in particular 30 μg/mL CAR-specific anti-idiotypic antibody,dose-dependent
same,T cell proliferation (% confluence),[7],did not affect T cell proliferation
